In patent US20050054605A1, “Partial or full A1 agonists - N6 heterocyclic 5' thio substituted adenosine derivatives” (priority 1999, published 2005):

Tests used:
[1] = molecular target: T1, A1 receptor in DDT1 cells (Mesocricetus auratus, UniProt A0A1U8BVR4); test: cAMP assay (SPA) in DDT1 cells, forskolin-induced cAMP; format: cell-based, hamster; conditions: forskolin 5 μM; for Camp: rolipram 50 μM, 10 min 37° C., normalized to the full agonist CPA
T1 construct: endogenous in cells; host or cells: DDT1 cells (hamster vas deferens smooth muscle cell line): membranes in A1 and A3, whole cells in A4
T1 sequence (A0A1U8BVR4 1-326): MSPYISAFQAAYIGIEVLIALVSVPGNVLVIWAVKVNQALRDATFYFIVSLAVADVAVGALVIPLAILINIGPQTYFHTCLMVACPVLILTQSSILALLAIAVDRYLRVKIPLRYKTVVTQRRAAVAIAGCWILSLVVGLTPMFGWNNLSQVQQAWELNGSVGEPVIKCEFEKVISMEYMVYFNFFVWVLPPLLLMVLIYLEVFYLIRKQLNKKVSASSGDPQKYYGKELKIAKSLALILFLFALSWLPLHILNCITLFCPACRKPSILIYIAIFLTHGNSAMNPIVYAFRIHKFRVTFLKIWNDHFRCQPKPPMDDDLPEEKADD
Method: (§1) DDT cells (hamster vas deferens smooth muscle cell line) were grown as monolayers in petri dishes using Dulbecco's Modified Eagle's Medium (DMEM) containing […] amphotericin B, 100 U ml^−1 penicillin G, 0.1 mg ml^−1 streptomycin sulfate and 5% fetal bovine serum in a humidified atmosphere of 95% air and 5% CO2. Cells were subcultured twice weekly by dispersion in Hank's Balanced Salt Solution (HBSS) without the divalent cations and containing 1 mM EDTA. The cells were then seeded in growth medium at a density of 1.2×10^5 cells per plate and experiments were performed 4 days later at approximately one day preconfluence.
A scintillation proximity assay (SPA) using rabbit antibodies directed at cAMP using an added tracer of adenosine 3′,5′-cyclic phosphoric acid 2′-O-succinyl-3-[^125I]iodotyrosine methyl ester and fluoromicrospheres containing anti-rabbit specific antibodies as described by Amersham Pharmacia Biotech (Biotrak cellular communication assays). Briefly, DDT1 cells were cultured in clear bottomed 96 well microtiter plates with opaque wells at concentrations between 10^4 to 10^6 cells per well in 40 μl of HBSS at 37° C. (5% CO2 and 95% humidity). The partial or full A1 agonists (5 μl) of this invention were incubated at various concentrations with the DDT1 cells in the presence of rolipram (50 μM), and 5 μM forskolin for 10 min at 37° C. The cells were immediately lysed by treatment 5 μl of 10% dodecyltrimethylammonium bromide followed by shaking using microplate shaker. After incubation of the plate for 5 minutes, an immunoreagent solution (150 μl containing equal volumes of tracer, antiserum, and SPA fluorospheres) was added to each well followed by sealing the plate. After 15-20 h at 23° C., the amount of bound [^125I] cAMP to the fluoromicrospheres was determined by counting in a microtitre plate scintillation counter for 2 minutes. Comparison of counts with standard curves generated for cAMP using a similar protocol afforded the cAMP present after cell lysis.

[2] = molecular target: T2, A1 AdoR (Mesocricetus auratus, UniProt A0A1U8BVR4); test: [35S]GTPγS binding assay (A1-agonist stimulated), DDT1 membranes; format: biochemical, hamster; conditions: stimulated [35S]GTPγS binding normalized to the full agonist CPA
T2 construct: endogenous in cells; host or cells: DDT1 cells (hamster vas deferens smooth muscle cell line): membranes in A1 and A3, whole cells in A4
T2 sequence (A0A1U8BVR4 1-326): T1 sequence (A0A1U8BVR4 1-326)
Method: as §1
(§2) Attached cells were washed twice with HBSS (2×10 ml), scraped free of the plate with the aid of a rubber policeman in 5 ml of 50 mM Tris-HCl buffer pH 7.4 at 4° C. and the suspension homogenized for 10 s. The suspension was then centrifuged at 27,000×g for 10 min. The pellet was resuspended in homogenization buffer by vortexing and centrifuged as described above. The final pellet was resuspended in 1 vol of 50 mM Tris-HCl buffer pH 7.4 containing 5 mM MgCl2 for A1 AdoR assays. For the [^35S]GTPγS binding assay the final pellet was resuspended in 50 mM Tris-HCl pH 7.4 containing 5 mM MgCl2, 100 mM NaCl and 1 mM dithiothreitol. This membrane suspension was then placed in liquid nitrogen for 10 min, thawed and used for assays. The protein content was determined with a Bradford™ Assay Kit using bovine serum albumin as standard.
A1-agonist stimulated [^35S] GTPγS binding was determined by a modification of the method described by Giersckik et al. (1991) and Lorenzen et al. (1993). […] Nonspecific binding was determined by the addition of 10 μM GTPγS. […] Previous reports have shown that agonist stimulated [^35S]GTPγS binding was dependent on the presence of GDP (Gierschik et al., 1991; Lorenzen et al., 1993; Traynor & Nahorski, 1995). […] In saturation experiments, 0.5 nM [^35S]GTPγS was incubated with 0.5-1000 nM GTPγS. At the end of the incubation, each suspension was filtered and the retained radioactivity determined as described above.

[3] = molecular target: T3, A1 receptor (Mesocricetus auratus, UniProt A0A1U8BVR4); test: Competitive binding assay, DDT1 cell membranes, [3H]CCPA; set-up: species or system hamster; conditions: DDT1 membrane prep, agonist [3H]CCPA 2 nM, 23 C, 2 h
T3 construct: endogenous in cells; host or cells: DDT1 cells (hamster vas deferens smooth muscle cell line): membranes in A1 and A3, whole cells in A4
T3 sequence (A0A1U8BVR4 1-326): T1 sequence (A0A1U8BVR4 1-326)
Method: as §1, §2
(§3) Pig striatum were prepared by homogenation in 50 mM Tris buffer (5× volume of tissue mass pH=7.4). After centrifugation at 19,000 rpm for 25 minutes at 4° C., the supernatant was discarded, and the process was repeated twice. Compositions of this invention were assayed to determine their affinity for the A1 receptor in a pig striatum membrane prep or a DDT1 membrane prep. Briefly, 0.2 mg of pig striatal membranes or DDT1 cell membranes were treated with adenosine deaminase and 50 mM Tris buffer (pH=7.4) followed by mixing. To the pig membranes was added 2 μL of serially diluted DMSO stock solution of the compounds of this invention at concentrations ranging from 100 microM to 10 nM. The control received 2 microL of DMSO alone, then the antagonist [^3H] 8-cyclopentylxanthine (CPX) for pig striatum or the agonist [^3H] 2-chloro-6-cyclopentyladenosine (CCPA) for DDT1 membranes in Tris buffer (50 mM, pH of 7.4) was added to achieve a final concentration of 2 nM. After incubation at 23 C for 2 h, then the solutions were filtered using a membrane harvester using multiple washing of the membranes (3×). The filter disks were counted in scintillation cocktail affording the amount of displacement of tritiated CPX or by the competitive binding compositions of this invention. Greater than a 5 point curve was used to generate Ki's and the number of experiments is indicated in the column marked in Table 1, below: […]

[4] = molecular target: T4, A1 receptor (Sus scrofa, UniProt I3LEN5); test: Competitive binding assay, pig striatum membranes, [3H]CPX; conditions: pig striatal membranes, antagonist [3H]CPX 2 nM, 23 C, 2 h
T4 construct: from tissue; host or cells: pig striatum membranes
T4 sequence (I3LEN5 1-326): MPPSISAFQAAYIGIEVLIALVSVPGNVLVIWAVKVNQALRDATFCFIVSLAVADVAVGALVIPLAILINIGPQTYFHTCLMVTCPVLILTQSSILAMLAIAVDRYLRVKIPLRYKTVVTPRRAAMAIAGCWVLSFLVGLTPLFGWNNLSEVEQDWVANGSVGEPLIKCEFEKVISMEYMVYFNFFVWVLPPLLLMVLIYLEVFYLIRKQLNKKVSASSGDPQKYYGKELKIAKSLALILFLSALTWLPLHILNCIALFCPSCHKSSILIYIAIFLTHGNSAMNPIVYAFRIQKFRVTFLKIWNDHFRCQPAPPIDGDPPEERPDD
Method: as §3

Row | Camp [1] | GTP[…]S [2] | Ki [3] | Ki [4] | Compound | effect on forskolin induced cAMP generation [1]
1 | 47% | 61% | 0.363 µM | – | O[C@@H]1[C@H](O)[C@@H](CSc2ccc(F)cc2)O[C@H]1n1cnc2c(N[C@@H]3CCOC3)ncnc21 [Compound 14, 2-{6-[((3R)oxolan-3-yl)amino]purin-9-yl}(4S,5S,2R,3R)-5-[(4-fluorophenylthio)methyl]oxolane-3,4-diol] | –
2 | – | – | – | 0.188 µM | CC(C)SC[C@H]1O[C@@H](n2cnc3c(N[C@@H]4CCOC4)ncnc32)[C@H](O)[C@@H]1O [Compound 10, 2-{6-[((3R)oxolan-3-yl)amino]purin-9-yl}(4S,5S,2R,3R)-5-[(Methylethylthio)methyl]oxolane-3,4-diol] | –
3 | 22% | 31% | 7.7 µM | – | O[C@@H]1[C@H](O)[C@@H](CSc2ccc(C(F)(F)F)cc2)O[C@H]1n1cnc2c(N[C@@H]3CCOC3)ncnc21 [Compound 16, 2-{6-[((3R)oxolan-3-yl)amino]purin-9-yl}(4S,5S,2R,3R)-5-[(4-(trifluoromethyl)phenylthio)methyl]oxolane-3,4-diol] | –
4 | 30% | 69% | – | – | O[C@@H]1[C@H](O)[C@@H](CSc2ccc(Cl)cc2)O[C@H]1n1cnc2c(N[C@@H]3CCOC3)ncnc21 [Compound 13, 2-{6-[((3R)oxolan-3-yl)amino]purin-9-yl}(4S,5S,2R,3R)-5-[(4-chlorophenylthio)methyl]oxolane-3,4-diol] | –
5 | – | – | – | 0.044 µM | O[C@@H]1[C@H](O)[C@@H](CSc2ccccc2)O[C@H]1n1cnc2c(N[C@@H]3CCOC3)ncnc21 [Compound 11, 2-{6-[((3R)oxolan-3-yl)amino]purin-9-yl}(4S,5S,2R,3R)-5-(phenylthiomethyl)oxolane-3,4-diol] | –
6 | 107% | – | – | – | OC[C@H]1O[C@@H](n2cnc3c(NC4CCCC4)ncnc32)[C@H](O)[C@@H]1O [CPA, N-6-cyclopentyladenosine, reference compound] | diminished the amount of forskolin induced cAMP generation back to basal levels
7 | 22% | 48% | 0.922 µM | – | Cc1ccc(SC[C@H]2O[C@@H](n3cnc4c(N[C@@H]5CCOC5)ncnc43)[C@H](O)[C@@H]2O)cc1 [Compound 15, 2-{6-[((3R)oxolan-3-yl)amino]purin-9-yl}(4S,5S,2R,3R)-5-[(4-methylphenylthio)methyl]oxolane-3,4-diol] | –
8 | – | – | – | 0.222 µM | CSC[C@H]1O[C@@H](n2cnc3c(N[C@@H]4CCOC4)ncnc32)[C@H](O)[C@@H]1O [Compound 7, 2-{6-[((3R)oxolan-3-yl)amino]purin-9-yl}(4S,5S,2R,3R)-5-(methylthiomethyl)oxolane-3,4-diol] | –
9 | 37% | 104% | – | – | CCSC[C@H]1O[C@@H](n2cnc3c(N[C@@H]4CCOC4)ncnc32)[C@H](O)[C@@H]1O [Compound 8, 2-{6-[((3R)oxolan-3-yl)amino]purin-9-yl}(4S,5S,2R,3R)-5-[(Ethylthio)methyl]oxolane-3,4-diol] | –
10 | 18% | 52% | 0.947 µM | – | COc1ccccc1SC[C@H]1O[C@@H](n2cnc3c(N[C@@H]4CCOC4)ncnc32)[C@H](O)[C@@H]1O [Compound 17, 2-{6-[((3R)oxolan-3-yl)amino]purin-9-yl}(4S,5S,2R,3R)-5-[(2-Methoxyphenylthio)methyl]oxolane-3,4-diol] | –
11 | −9% | 52% | 0.82 µM | – | COc1ccc(SC[C@H]2O[C@@H](n3cnc4c(N[C@@H]5CCOC5)ncnc43)[C@H](O)[C@@H]2O)cc1 [Compound 12, 2-{6-[((3R)oxolan-3-yl)amino]purin-9-yl}(4S,5S,2R,3R)-5-[(4-Methoxyphenylthio)methyl]oxolane-3,4-diol] | –
